# Legend:
# [1] = test system: corn; assay: Test Example 2: soil application on the day after sowing, growth inhibition rate, corn; format: in vivo, Zea mays L.; conditions: 250 g/ha active ingredient, observed on 19th to 24th day; for inhibition at 250 g/ha: Zea mays
# How it was run: (§1)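 Upland soil pots sown with crop and weed seeds; next day wettable powder or emulsifiable concentrate at prescribed active-ingredient amounts, diluted to 500 L/ha water, sprayed onto soil. Growth inhibition scored visually 19–24 days later, 0 (as untreated) to 100% (complete kill).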
# [2] = test system: corn (Zea mays L.); assay: Test Example 1: foliar treatment, growth inhibition rate, corn; format: in vivo; conditions: 31 g/ha active ingredient, visually observed 17th to 23rd day after application; for pest or weed control at 31 g/ha: Zea mays
# How it was run: (§2)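 Visual growth inhibition rating, 0% (as untreated) to 100% (complete kill), taken 17–23 d after foliar spray. Compound was formulated as wettable powder or EC, diluted to 500 L/ha water with 0.1 vol % agricultural spreader, and applied to pot-grown seedlings of corn (2.0–3.5 leaf), greenfoxtail (1.0–3.0), rice (1.0–2.5) and wheat (1.7–3.4).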
# [3] = test system: greenfoxtail (Setaria viridis L.); assay: Test Example 1: foliar treatment, growth inhibition rate, greenfoxtail; format: in vivo; conditions: 31 g/ha active ingredient, visually observed 17th to 23rd day after application; for pest or weed control at 31 g/ha: Setaria viridis
# How it was run: as §2
# [4] = test system: velvetleaf (Abutilon theophrasti MEDIC.); assay: Test Example 1: foliar treatment, growth inhibition rate, velvetleaf; format: in vivo; conditions: 31 g/ha active ingredient, visually observed 17th to 23rd day after application; for pest or weed control at 31 g/ha: Abutilon theophrasti
# How it was run: (§3)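 Post-emergence foliar spray, pot test; WP/EC formulation in water at 500 L/ha, + 0.1 vol % spreader; leaf stage at treatment: corn 2.0–3.5, green foxtail 1.0–3.0, rice 1.0–2.5, wheat 1.7–3.4; visual % inhibition at 17–23 DAT (0 = untreated, 100 = dead).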
# [5] = test system: prickly sida; assay: Test Example 2: soil application on the day after sowing, growth inhibition rate, prickly sida; format: in vivo, Sida spinosa L.; conditions: 250 g/ha active ingredient, observed on 19th to 24th day; for inhibition at 250 g/ha: Sida spinosa
# How it was run: as §1
# [6] = test system: redroot pigweed; assay: Test Example 2: soil application on the day after sowing, growth inhibition rate, redroot pigweed; format: in vivo, Amaranthus retroflexus L.; conditions: 250 g/ha active ingredient, observed on 19th to 24th day; for inhibition at 250 g/ha: Amaranthus retroflexus
# How it was run: as §1
# [7] = test system: greenfoxtail; assay: Test Example 2: soil application on the day after sowing, growth inhibition rate, greenfoxtail; format: in vivo, Setaria viridis L.; conditions: 250 g/ha active ingredient, observed on 19th to 24th day; for inhibition at 250 g/ha: Setaria viridis
# How it was run: as §1
# [8] = test system: barnyardgrass (Echinochloa crus-galli L.); assay: Test Example 1: foliar treatment, growth inhibition rate, barnyardgrass; format: in vivo; conditions: 31 g/ha active ingredient, visually observed 17th to 23rd day after application; for pest or weed control at 31 g/ha: Echinochloa crus-galli
# How it was run: as §3
# [9] = test system: wheat (Triticum spp.); assay: Test Example 1: foliar treatment, growth inhibition rate, wheat; format: in vivo; conditions: 31 g/ha active ingredient, visually observed 17th to 23rd day after application; for pest or weed control at 31 g/ha: Triticum
# How it was run: as §2
# [10] = test system: rice; assay: Test Example 2: soil application on the day after sowing, growth inhibition rate, rice; format: in vivo, Oryza sativa L.; conditions: 250 g/ha active ingredient, observed on 19th to 24th day; for inhibition at 250 g/ha: Oryza sativa
# How it was run: as §1
# [11] = test system: redroot pigweed (Amaranthus retroflexus L.); assay: Test Example 1: foliar treatment, growth inhibition rate, redroot pigweed; format: in vivo; conditions: 31 g/ha active ingredient, visually observed 17th to 23rd day after application
# How it was run: (§4)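 Visual scoring of growth inhibition, 0% (untreated) to 100% (complete kill), on days 17–23 following post-emergence spray of formulated compound in water (500 L/ha, 0.1 vol % spreader); plants treated at set leaf stages, e.g. corn 2.0–3.5, wheat 1.7–3.4.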
# [12] = test system: soybean (Glycine max Merr.); assay: Test Example 1: foliar treatment, growth inhibition rate, soybean; format: in vivo; conditions: 31 g/ha active ingredient, visually observed 17th to 23rd day after application
# How it was run: as §4
# [13] = test system: crabgrass; assay: Test Example 2: soil application on the day after sowing, growth inhibition rate, crabgrass; format: in vivo, Digitaria sanguinalis L.; conditions: 250 g/ha active ingredient, observed on 19th to 24th day; for inhibition at 250 g/ha: Digitaria sanguinalis
# How it was run: as §1
# [14] = test system: rice (Oryza sativa L.); assay: Test Example 1: foliar treatment, growth inhibition rate, rice; format: in vivo; conditions: 31 g/ha active ingredient, visually observed 17th to 23rd day after application; for pest or weed control at 31 g/ha: Oryza sativa
# How it was run: as §2
# [15] = test system: wheat; assay: Test Example 2: soil application on the day after sowing, growth inhibition rate, wheat; format: in vivo, Triticum spp.; conditions: 250 g/ha active ingredient, observed on 19th to 24th day; for inhibition at 250 g/ha: Triticum aestivum
# Excerpt: Upland field soil was put into a 1/170,000 hectare pot, and seeds of various plants (barnyardgrass, crabgrass, greenfoxtail, redroot pigweed, prickly sida, velvetleaf, rice, wheat, corn and soybean) were sown. On the day after sowing, wettable powders or emulsifiable concentrates of the compounds of the present invention prepared in accordance with a conventional preparation method, were weighed so that the active ingredients became the prescribed amounts, and diluted with water in an amount corresponding to 500 liter per 1 hectare, followed by soil application with a small sprayer. On the 19th to 24th day after the application, the state of growth of the respective plants was visually observed, and the herbicidal effect was evaluated in accordance with a growth inhibition rate (%) of from 0 (equivalent to the non-treated area) to 100% (complete kill).
# [16] = test system: barnyardgrass; assay: Test Example 2: soil application on the day after sowing, growth inhibition rate, barnyardgrass; format: in vivo, Echinochloa crus-galli L.; conditions: 250 g/ha active ingredient, observed on 19th to 24th day; for inhibition at 250 g/ha: Echinochloa crus-galli
# How it was run: as §1
# [17] = test system: velvetleaf; assay: Test Example 2: soil application on the day after sowing, growth inhibition rate, velvetleaf; format: in vivo, Abutilon theophrasti MEDIC.; conditions: 250 g/ha active ingredient, observed on 19th to 24th day; for inhibition at 250 g/ha: Abutilon theophrasti
# How it was run: as §1
# [18] = test system: soybean; assay: Test Example 2: soil application on the day after sowing, growth inhibition rate, soybean; format: in vivo, Glycine max Merr.; conditions: 250 g/ha active ingredient, observed on 19th to 24th day; for inhibition at 250 g/ha: Glycine max
# How it was run: as §1
# [19] = test system: crabgrass (Digitaria sanguinalis L.); assay: Test Example 1: foliar treatment, growth inhibition rate, crabgrass; format: in vivo; conditions: 31 g/ha active ingredient, visually observed 17th to 23rd day after application; for pest or weed control at 31 g/ha: Digitaria sanguinalis
# How it was run: as §4
SMILES,inhibition at 250 g/ha [1] [%],Growth inhibition rate (%) redroot pigweed [11] [%],Growth inhibition rate (%) Soybean [12] [%],Growth inhibition rate (%) Corn [1] [%],Growth inhibition rate (%) Corn [2] [%],Growth inhibition rate (%) Greenfoxtail [3] [%],Growth inhibition rate (%) Velvetleaf [4] [%],Growth inhibition rate (%) Prickly sida [5] [%],Growth inhibition rate (%) redroot pigweed [6] [%],Growth inhibition rate (%) Greenfoxtail [7] [%],Growth inhibition rate (%) Barnyardgrass [8] [%],Growth inhibition rate (%) Wheat [9] [%],Growth inhibition rate (%) Rice [10] [%],Growth inhibition rate (%) Crabgrass [13] [%],Growth inhibition rate (%) Rice [14] [%],Growth inhibition rate (%) Wheat [15] [%],Growth inhibition rate (%) Barnyardgrass [16] [%],Growth inhibition rate (%) Velvetleaf [17] [%],Growth inhibition rate (%) Soybean [18] [%],Growth inhibition rate (%) Crabgrass [19] [%],other results
"CCSC(=O)Oc1c(C(=O)c2ccc(S(C)(=O)=O)c(OCCOC)c2C)cnn1C [Compound No. 55, 5-(ethylthio)carbonyloxy-1-methylpyrazol-4-yl 3-(2-methoxyethoxy)-2-methyl-4-(methylsulfonyl)phenyl ketone]",0,95,95,,,,,,,,,,,,,,,,,,pest or weed control at 31 g/ha [2]: 40%; pest or weed control at 31 g/ha [3]: 100%; pest or weed control at 31 g/ha [4]: 100%; inhibition at 250 g/ha [5]: 70%; inhibition at 250 g/ha [6]: 100%; inhibition at 250 g/ha [7]: 100%; pest or weed control at 31 g/ha [8]: 100%; pest or weed control at 31 g/ha [9]: 10%; inhibition at 250 g/ha [10]: 70%; inhibition at 250 g/ha [13]: 100%; pest or weed control at 31 g/ha [14]: 60%; inhibition at 250 g/ha [15]: 0%; inhibition at 250 g/ha [16]: 100%; inhibition at 250 g/ha [17]: 95%; inhibition at 250 g/ha [18]: 0%; pest or weed control at 31 g/ha [19]: 100%
CCSC(=O)Oc1c(C(=O)c2ccc(S(C)(=O)=O)c(COC)c2C)cnn1C [compound 63],,95,95,0,0,100,95,80,90,90,95,10,80,95,90,0,95,70,0,98,
"CCSC(=O)Oc1c(C(=O)c2ccc(S(C)(=O)=O)c(C3=NOCC3)c2C)cnn1C [Compound No. 39, 5-(ethylthio)carbonyloxy-1-methylpyrazol-4-yl 2-methyl-4-(methylsulfonyl)-3-(4,5-dihydroisoxazol-3-yl)phenyl ketone]",10,80,95,,,,,,,,,,,,,,,,,,pest or weed control at 31 g/ha [2]: 0%; pest or weed control at 31 g/ha [3]: 95%; pest or weed control at 31 g/ha [4]: 90%; inhibition at 250 g/ha [5]: 70%; inhibition at 250 g/ha [6]: 100%; inhibition at 250 g/ha [7]: 80%; pest or weed control at 31 g/ha [8]: 95%; pest or weed control at 31 g/ha [9]: 40%; inhibition at 250 g/ha [10]: 80%; inhibition at 250 g/ha [13]: 100%; pest or weed control at 31 g/ha [14]: 95%; inhibition at 250 g/ha [15]: 0%; inhibition at 250 g/ha [16]: 70%; inhibition at 250 g/ha [17]: 60%; inhibition at 250 g/ha [18]: 0%; pest or weed control at 31 g/ha [19]: 90%
CCSC(=O)Oc1c(C(=O)c2ccc(S(C)(=O)=O)c(OC(C)C)c2C)cnn1C [compound 37],,100,70,0,0,100,95,10,50,60,95,0,10,80,70,0,60,30,0,80,
CCOC(=O)c1c(S(C)(=O)=O)ccc(C(=O)c2cnn(CC)c2OC(=O)SC)c1C [compound 62],,100,90,0,10,100,95,90,100,95,100,50,70,95,80,30,80,90,0,100,
